Assay results from patent US20030114445A1, “N3-substituted 6-anilinopyrimidines and methods to treat-Gram-positive bacterial and mycoplasmal infections” (priority 2001, published 2003).
Where two headings read alike, the source gives them in different places.

What was measured:
Water solubility = format: physicochemical; settings: 25° C. stated for Compound 35
From the text: The compounds described herein have increased water solubility; some of the compounds can form salts, such as with inorganic or organic acids or with alkali metal bases, thus greatly increasing their solubilities. […] The improved water solubilities are a distinct advantage in formulation and in dosing of animals for testing, and for ultimate therapeutic use in humans.

[1] = Pharmacokinetics in mice (plasma concentration by HPLC); format: in vivo; settings: saline solution
From the text: Compound 59 was given to mice in simple saline solutions by various routes—subcutaneous (sc), intravenous (iv), and orally (po). High performance liquid chromatography (HPLC) on a reverse phase C 18 column was used to monitor the concentration of the compound in animal plasma, and the results were plotted as a function of time, as shown in FIG. 1.
Tmax, time to peak concentration; Cmax, peak concentration; T½, half-life; AUC(0-t), area under the curve, from 0 to time t; AUC(0-60), area under the curve, from 0 to 60 minutes; Vd, volume of distribution; Cl, clearance.

S. aureus (Smith strain) = experiment: Efficacy, sc dosing of mice infected ip with S. aureus; format: in vivo; settings: Compound 59 given sc, relative to vehicle control, FIG. 3
From the text: Compound 59 was give by the sc route to mice infected by the ip route with S. aureus (Smith strain).

`CCc1cc(Nc2cc(=O)n(CCCCN3CCOCC3)c(=O)[nH]2)ccc1C.Cl` [Compound 59, 3-[4-(N-morpholino)butyl]-6-(3-ethyl-4-methylanilino)uracil hydrochloride] showed a solubility (Water solubility) of over 60 mg/mL, an AUC(0-t) ([1]; mouse, plasma, iv, 20 mg/kg, iv, 20 mg/kg, 0-120, read-out: AUC(0-t) (converted)) of 3900 ng·h/mL and an AUC(0-t) ([1]; mouse, plasma, iv, 20 mg/kg, iv, 20 mg/kg, read-out: AUC(0-60) (converted)) of 3400 ng·h/mL. It also gave a Cmax ([1]; mouse, plasma, iv, 20 mg/kg) of 27400 ng/mL, a clearance ([1]; mouse, plasma, iv, 20 mg/kg) of 77 mL/min/kg and a half-life ([1]; mouse, plasma, iv, 20 mg/kg) of 39 min. It also gave a Tmax ([1]; mouse, plasma, iv, 20 mg/kg, ncm fit) of 0 min, a Vd ([1]; mouse, plasma, iv, 20 mg/kg, read-out: Vd) of 4.3 L/kg and a bioavailability ([1]; mouse, plasma, po, read-out: oral bioavailability (absorbed from the po route)) of about 50%. It also gave a Cmax ([1]; mouse, plasma, sc, 20 mg/kg) of 4600 ng/mL, a Tmax ([1]; mouse, plasma, sc, 20 mg/kg) of 5 min and a half-life ([1]; mouse, plasma, sc, 20 mg/kg) of 149 min. For the same compound, the AUC(0-t) ([1]; mouse, plasma, sc, 20 mg/kg, sc, 20 mg/kg, (0-180), read-out: AUC(0-t) (converted)) was 6770 ng·h/mL, the AUC(0-t) ([1]; mouse, plasma, sc, 20 mg/kg, sc, 20 mg/kg, read-out: AUC(0-60) (converted)) was 3330 ng·h/mL and the Cmax ([1]; mouse, plasma, sc, 200 mg/kg) was 15000 ng/mL. It also gave a Tmax ([1]; mouse, plasma, sc, 200 mg/kg) of 30 min, a half-life ([1]; mouse, plasma, sc, 200 mg/kg) of 132 min and an AUC(0-t) ([1]; mouse, plasma, sc, 200 mg/kg, sc, 200 mg/kg, (0-180), read-out: AUC(0-t) (converted)) of 26900 ng·h/mL. It also gave an AUC(0-t) ([1]; mouse, plasma, sc, 200 mg/kg, sc, 200 mg/kg, read-out: AUC(0-60) (converted)) of 10600 ng·h/mL, a Cmax ([1]; mouse, plasma, sc, 400 mg/kg) of 24100 ng/mL and a Tmax ([1]; mouse, plasma, sc, 400 mg/kg) of 30 min. It also gave a half-life ([1]; mouse, plasma, sc, 400 mg/kg) of 373 min, an AUC(0-t) ([1]; mouse, plasma, sc, 400 mg/kg, sc, 400 mg/kg, (0-360), read-out: AUC(0-t) (converted)) of 75000 ng·h/mL and an AUC(0-t) ([1]; mouse, plasma, sc, 400 mg/kg, sc, 400 mg/kg, read-out: AUC(0-60) (converted)) of 19800 ng·h/mL. The Cl ([1]; sc, 20 mg/kg) was 30.2 mL/min/kg, the Vd ([1]; sc, 20 mg/kg) was 6.5 L/kg and the “absorption by the sc route” value ([1]; sc) was “completely absorbed”. For the same compound, the “survival of infected mice” value (S. aureus (Smith strain)) was “prolonged the survival time of mice relative to vehicle control”.
